The term clearance denotes the volume of plasma or blood freed of the substance per unit of time.

Each structure is given as a SMILES string.

The subject of data set [1] is tubulin. The experiment in a line: Inhibition of tubulin polymerization. The settings on record: read-out: tubulin assembly inhibition; footnotes of Table 4. It counts as biochemical.
In data set [2] the test system is MCF-7 human breast carcinoma cells. The settings on record: read-out: IC50 ± SD MCF-7; ref [16]; cited from earlier work.
The test system of data set [3] is HAOSMC human aortic smooth muscle cells. The conditions noted are these: read-out: IC50 ± SD HAOSMC; ref [16]; cited from earlier work.
Data set [4] concerns A10 rat embryonic aortic smooth muscle cells. The settings on record: read-out: IC50 ± SD A10; ref [16]; cited from earlier work.
Data set [5] has as its system PtK2 kidney epithelial cells. The conditions noted are these: read-out: IC50 ± SD PtK2; ref [16]; cited from earlier work.
In data set [6] the test system is HUVEC human umbilical vein endothelial cells. The conditions noted are these: read-out: IC50 ± SD HUVEC; ref [16]; cited from earlier work.
The nature of data set [7]: iv and os pharmacokinetics in mice. Format: in vivo. The conditions noted are these: male, CD-1, mouse, plasma, 5 mg/kg.
Data set [8] concerns A2780-CIS cells (cisplatin-resistant). The data set can be described thus: Growth inhibition of A2780-CIS cells. It counts as cell-based, human.
In data set [9] the test system is OVCAR-3 cells. The experiment in a line: Growth inhibition of OVCAR-3 cells. Format: cell-based, human.
Data set [10] concerns A2780wt cells. The data set can be described thus: Growth inhibition of A2780wt cells. The conditions noted are these: read-out: IC50 ± SD A2780wt. Format: cell-based, human.

As for `CCC1=C[C@@H]2CN(C1)Cc1c([nH]c3ccccc13)[C@@](C(=O)OC)(c1cc3c(cc1OC)N(C)[C@H]1[C@@](O)(C(=O)OC)[C@H](OC(C)=O)[C@]4(CC)C=CCN5CC[C@]31[C@@H]54)C2` [VRB, vinorelbine], the IC50 in data set [1] amounted to 3.1 µM.

As for `CC(=O)O[C@H]1C(=O)[C@@]2(C)[C@H]([C@H](OC(=O)c3ccccc3)[C@]3(O)C[C@H](OC(=O)[C@H](O)[C@@H](NC(=O)c4ccccc4)c4ccccc4)C(C)=C1C3(C)C)[C@]1(OC(C)=O)CO[C@@H]1C[C@@H]2O` [PTX, paclitaxel], the IC50 is 0.003 ± 0.0005 µM in [2]; 0.006 ± 0.006 µM in data set [3]; 0.038 ± 0.01 µM in data set [4]; 0.021 ± 0.008 µM in data set [5]; 0.007 ± 0.004 µM in [6].

In the case of `CC[C@]1(O)C[C@@H]2CN(CCc3c([nH]c4ccccc34)[C@@](C(=O)OC)(c3cc4c(cc3OC)N(C)[C@H]3[C@@](O)(C(=O)OC)[C@H](OC(C)=O)[C@]5(CC)C=CCN6CC[C@]43[C@@H]65)C2)C1` [VBL, vinblastine], the IC50 in data set [1] turned out to be […].

Consider `COc1cc(Sc2c(-c3cc[nH]c3)[nH]c3ccccc23)cc(OC)c1OC` [Compound 5, 2-(1H-Pyrrol-3-yl)-3-[(3′,4′,5′-trimethoxyphenyl)thio]-1H-indole], for which, in [7], the clearance is 28.6 mL/min/kg.

`N.N.[Cl][Pt][Cl]` [cisplatin]: the “RI-1 (Resistant Index-1)” value in data set [8] (IC50 in A2780-CIS divided by IC50 in A2780wt) is reported as 18.5. Also, the IC50 in data set [8] (read-out: IC50 ± SD A2780-CIS) was 8.98 ± 0.565 µM; in data set [9] (read-out: IC50 ± SD OVCAR-3), 1.82 ± 0.254 µM; in data set [10] it was 0.485 ± 0.06 µM. Besides, the “RI-2 (Resistant Index-2)” value in [9] (IC50 in OVCAR-3 divided by IC50 in A2780wt) is 3.7.

The record behind these values is paper PMC3261769 (Journal of Medicinal Chemistry, 2011).
